# System: ATG5 gene
# Test: ATG5 gene expression promoting effect in human neuroblastoma SH-SY5Y in the presence of amyloid β
# Type: cell-based
# Protocol: In the presence of an autophagy activator, the expression levels of the LC3 gene, ATG5 gene, and ATG7 gene in human neuroblastoma (SH-SY5Y; obtained from ATCC) were measured by the following test method, and the effect of promoting the expression of the LC3 gene, ATG5 gene, and ATG7 gene by an autophagy activator was evaluated.
# In the following examples and comparative examples, tests were performed by adding amyloid β, which is known to cause a decrease in autophagy in nerve cells, to each medium.
# SH-SY5Y cells were prepared at a seeding density of 10000 cells/cm^2 and cultured for 24 hours in D-MEM medium/Ham's F-12 medium (manufactured by Sigma-Aldrich) to which 10% fetal bovine serum (manufactured by MP Biomedicals) was added. Next, in Example 15, the methyl hesperidin DMSO solution was added to the medium such that the final concentration of methyl hesperidin was 10^−3% (V/V) and the final concentration of DMSO was 0.1% (V/V). […]
# Then, using Nucleospin (registered trademark) RNA kit (manufactured by Takara Bio Inc.), RNA was extracted from SH-SY5Y cells in each example, and cDNA was synthesized from the obtained RNA. Next, using this cDNA as a template, by quantitative real-time PCR, the expression level of each gene was quantified using primers (manufactured by Takara Bio Inc.) specific to the LC3 gene, ATG5 gene, and ATG7 gene, respectively. […]
smiles,measurement,setting,value
"COc1ccc([C@@H]2CC(=O)c3c(O)cc(O[C@@H]4O[C@H](CO[C@@H]5O[C@@H](C)[C@H](O)[C@@H](O)[C@H]5O)[C@@H](O)[C@H](O)[C@H]4O)cc3O2)cc1O [Comparative Example 2, hesperidin]",expression level of the ATG5 gene (in words),"SH-SY5Y cells with amyloid β, compared to DMSO and amyloid β of Comparative Example 5",increased
same,Relative gene expression level ATG5,"SH-SY5Y cells, 20 μM amyloid β present, 10^−2% (V/V) methyl hesperidin or hesperidin, additional ingredient where in the example, 48 hours, Reference Example 3 = 1.00",3.29

# From US20230355646A1, “AUTOPHAGY ACTIVATOR” (Resonac Corporation, priority 2020, published 2023)
